Test results reported in patent US20100298141A1, “SUBSTITUTED PYRIDINE N-OXIDE HERBICIDES” (E. I. DU PONT DE NEMOURS AND COMPANY, priority 2007, published 2010).

Assays:
morningglory [1] = experiment: Test A pre-/postemergence greenhouse test; type: in vivo, Ipomoea spp.; conditions: for Morningglory plant response rating: 0 to 100 scale; for Plant response rating, Morningglory: 0 to 100 scale where 0 is no effect and 100 is complete control
How it was run: (§1)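 Planting was into mixed loam soil and sand; preemergence treatment followed as a directed soil spray. Concurrently, emerged plants (one- to two-leaf, 2–10 cm) received postemergence applications of identically formulated compound (non-phytotoxic solvent, surfactant). After approximately ten days under greenhouse conditions, injury was judged by eye against untreated plants.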

redroot pigweed = experiment: Test A pre-/postemergence greenhouse test; type: in vivo, Amaranthus retroflexus; conditions: for Pigweed plant response rating: 0 to 100 scale; for Plant response rating, Pigweed: 0 to 100 scale where 0 is no effect and 100 is complete control
How it was run: as §1

corn [2] = experiment: Test A pre-/postemergence greenhouse test; type: in vivo, Zea mays; conditions: for Corn plant response rating: 0 to 100 scale; for Plant response rating, Corn: 0 to 100 scale where 0 is no effect and 100 is complete control
How it was run: as §1

Italian ryegrass = experiment: Test C pre-/postemergence test; type: in vivo, Lolium multiflorum; conditions: Preemergence; for Ryegrass, Italian plant response rating: 62 g ai/ha, scale 0 to 100; for Plant response rating, Ryegrass, Italian: 31 g ai/ha, scale 0 to 100 (0 no effect, 100 complete control)
How it was run: (§2)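 Compounds in a non-phytotoxic solvent with surfactant applied preemergence to seeded pots and, at the same time, postemergence to plants 2–18 cm tall (1- to 4-leaf stage). Paddy tests: pots flooded to 3 cm, compound applied into the water, depth held throughout.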

wheat = experiment: Test C pre-/postemergence test; type: in vivo, Triticum aestivum; conditions: Preemergence; for Wheat plant response rating: 62 g ai/ha, scale 0 to 100; for Plant response rating, Wheat: 31 g ai/ha, scale 0 to 100 (0 no effect, 100 complete control)
How it was run: as §2

wild oat = experiment: Test C pre-/postemergence test; type: in vivo, Avena fatua; conditions: Preemergence; for Oat, Wild plant response rating: 62 g ai/ha, scale 0 to 100; for Plant response rating, Oat, Wild: 31 g ai/ha, scale 0 to 100 (0 no effect, 100 complete control)
How it was run: as §2

bermudagrass = experiment: Test C pre-/postemergence test; type: in vivo, Cynodon dactylon; conditions: for Plant response rating, Bermudagrass: 31 g ai/ha; for Plant response rating (0 to 100), Bermudagrass: 250 g ai/ha
How it was run: as §2

cocklebur = experiment: Test C pre-/postemergence test; type: in vivo, Xanthium strumarium; conditions: for Plant response rating, Cocklebur: 31 g ai/ha, scale 0 to 100 (0 no effect, 100 complete control); for Plant response rating (0 to 100), Cocklebur: 250 g ai/ha
How it was run: as §2

corn [3] = experiment: Test C pre-/postemergence test; type: in vivo, Zea mays; conditions: for Plant response rating, Corn: 31 g ai/ha, scale 0 to 100 (0 no effect, 100 complete control); for Plant response rating (0 to 100), Corn: 250 g ai/ha
How it was run: as §2

giant foxtail = experiment: Test C pre-/postemergence test; type: in vivo, Setaria faberii; conditions: Preemergence; for Foxtail, Giant plant response rating: 62 g ai/ha, scale 0 to 100; for Plant response rating, Foxtail, Giant: 31 g ai/ha, scale 0 to 100 (0 no effect, 100 complete control); for Plant response rating (0 to 100), Foxtail, Giant: 250 g ai/ha
How it was run: as §2

johnsongrass = experiment: Test C pre-/postemergence test; type: in vivo, Sorghum halepense; conditions: Preemergence; for Johnsongrass plant response rating: 62 g ai/ha, scale 0 to 100; for Plant response rating, Johnsongrass: 31 g ai/ha, scale 0 to 100 (0 no effect, 100 complete control); for Plant response rating (0 to 100), Johnsongrass: 250 g ai/ha
How it was run: as §2

kochia = experiment: Test C pre-/postemergence test; type: in vivo, Kochia scoparia; conditions: Preemergence; for Kochia plant response rating: 62 g ai/ha, scale 0 to 100; for Plant response rating, Kochia: 31 g ai/ha, scale 0 to 100 (0 no effect, 100 complete control)
How it was run: as §2

morningglory [4] = experiment: Test C pre-/postemergence test; type: in vivo, Ipomoea coccinea; conditions: Preemergence; for Morningglory plant response rating: 62 g ai/ha, scale 0 to 100; for Plant response rating, Morningglory: 31 g ai/ha, scale 0 to 100 (0 no effect, 100 complete control)
How it was run: as §2

eastern black nightshade = experiment: Test C pre-/postemergence test; type: in vivo, Solanum ptycanthum; conditions: Preemergence; for Nightshade plant response rating: 62 g ai/ha, scale 0 to 100; for Plant response rating, Nightshade: 31 g ai/ha, scale 0 to 100 (0 no effect, 100 complete control)
How it was run: as §2

yellow nutsedge = experiment: Test C pre-/postemergence test; type: in vivo, Cyperus esculentus; conditions: Preemergence; for Nutsedge, Yellow plant response rating: 62 g ai/ha, scale 0 to 100; for Plant response rating, Nutsedge, Yellow: 31 g ai/ha, scale 0 to 100 (0 no effect, 100 complete control)
How it was run: as §2

[5] = system: common (oilseed) sunflower; experiment: Test C pre-/postemergence test; type: in vivo, Helianthus annuus; conditions: Preemergence; for Sunflower plant response rating: 62 g ai/ha, scale 0 to 100; for Plant response rating, Sunflower: 31 g ai/ha, scale 0 to 100 (0 no effect, 100 complete control)
How it was run: as §2

rice = experiment: Test C flooded paddy test; type: in vivo, Oryza sativa; conditions: Flood
How it was run: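 Pots were flooded to 3 cm above the soil surface at treatment, compound applied directly to the paddy water, and that depth held throughout. Plants were kept in a greenhouse for 13 to 15 days, then visually rated against untreated controls.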

[6] = Postemergence, 125 g ai/ha, 0 is no effect, 100 is complete control
[7] = Postemergence, 500 g ai/ha, 0 is no effect, 100 is complete control
[8] = Preemergence, 125 g ai/ha, 0 no effect, 100 complete control
[9] = 62 g ai/ha, Preemergence, scale 0 to 100 (0 no effect, 100 complete control)
[10] = Preemergence, scale 0 to 100 (0 no effect, 100 complete control)
[11] = preemergence, 125 g ai/ha, scale 0 (no effect) to 100 (complete control)
[12] = 62 g ai/ha, Preemergence, scale 0 to 100
[13] = 31 g ai/ha, scale 0 to 100 (0 no effect, 100 complete control)
[14] = 62 g ai/ha, scale 0 to 100, 0 no effect, 100 complete control, 13 to 15 days
[15] = 125 g ai/ha, scale 0 to 100, 0 no effect, 100 complete control, 13 to 15 days

Compound: Cn1nc(C(F)(F)F)c(CS(=O)(=O)c2cccc[n+]2[O-])c1OCC(F)(F)F [Compound 29]
- Morningglory plant response rating (morningglory [1]; [6]): 30
- Morningglory plant response rating (morningglory [1]; [7]): 80
- Morningglory plant response rating (morningglory [1]; [8]): 70
- Plant response rating, Morningglory (morningglory [1]; Preemergence, 500 g ai/ha): 80
- Pigweed plant response rating (redroot pigweed; [6]): 70
- Pigweed plant response rating (redroot pigweed; [7]): 80
- Pigweed plant response rating (redroot pigweed; [8]): 100
- Plant response rating, Pigweed (redroot pigweed; Preemergence, 500 g ai/ha): 100
- Corn plant response rating (corn [2]; [6]): 30
- Corn plant response rating (corn [2]; [7]): 60
- Corn plant response rating (corn [2]; [8]): 0
- Plant response rating, Corn (corn [2]; Preemergence, 500 g ai/ha): 70
- Ryegrass, Italian plant response rating (Italian ryegrass): 85
- Plant response rating, Ryegrass, Italian (Italian ryegrass): 60
- Wheat plant response rating (wheat): 30
- Plant response rating, Wheat (wheat): 20
- Oat, Wild plant response rating (wild oat): 50
- Plant response rating, Oat, Wild (wild oat): 20
- Bermudagrass plant response rating (bermudagrass; [9]): 100
- Plant response rating, Bermudagrass (bermudagrass; [10]): 100
- Plant response rating (0 to 100), Bermudagrass (bermudagrass; Preemergence): 100
- Bermudagrass plant response rating (bermudagrass; [11]): 100
- Cocklebur plant response rating (cocklebur; [12]): 0
- Plant response rating, Cocklebur (cocklebur; Preemergence): 0
- Plant response rating (0 to 100), Cocklebur (cocklebur; Preemergence): 10
- Cocklebur plant response rating (cocklebur; [11]): 0
- Corn plant response rating (corn [3]; [12]): 80
- Plant response rating, Corn (corn [3]; Preemergence): 0
- Plant response rating (0 to 100), Corn (corn [3]; Preemergence): 98
- Corn plant response rating (corn [3]; [11]): 98
- Foxtail, Giant plant response rating (giant foxtail): 100
- Plant response rating, Foxtail, Giant (giant foxtail): 100
- Plant response rating (0 to 100), Foxtail, Giant (giant foxtail): 100
- Johnsongrass plant response rating (johnsongrass): 100
- Plant response rating, Johnsongrass (johnsongrass): 100
- Plant response rating (0 to 100), Johnsongrass (johnsongrass): 100
- Kochia plant response rating (kochia): 100
- Plant response rating, Kochia (kochia): 100
- Morningglory plant response rating (morningglory [4]): 10
- Plant response rating, Morningglory (morningglory [4]): 0
- Nightshade plant response rating (eastern black nightshade): 98
- Plant response rating, Nightshade (eastern black nightshade): 75
- Nutsedge, Yellow plant response rating (yellow nutsedge): 100
- Plant response rating, Nutsedge, Yellow (yellow nutsedge): 80
- Sunflower plant response rating [5]: 60
- Plant response rating, Sunflower [5]: 0
- Plant response rating, Rice (rice; [13]): 0
- Plant response rating, Rice (rice; [14]): 0
- Plant response rating, Rice (rice; [15]): 40
- Plant response rating, Rice (rice; 250 g ai/ha, scale 0 to 100 (0 no effect, 100 complete control)): 80

Compound: Cc1cc[n+]([O-])c(S(=O)(=O)Cc2c(C(F)(F)F)nn(C)c2OCC(F)(F)F)c1 [Compound 31]
- Morningglory plant response rating (morningglory [1]; [6]): 60
- Morningglory plant response rating (morningglory [1]; [7]): 80
- Morningglory plant response rating (morningglory [1]; [8]): 90
- Plant response rating, Morningglory (morningglory [1]; Preemergence, 500 g ai/ha): 100
- Pigweed plant response rating (redroot pigweed; [6]): 80
- Pigweed plant response rating (redroot pigweed; [7]): 80
- Pigweed plant response rating (redroot pigweed; [8]): 100
- Plant response rating, Pigweed (redroot pigweed; Preemergence, 500 g ai/ha): 100
- Corn plant response rating (corn [2]; [6]): 40
- Corn plant response rating (corn [2]; [7]): 40
- Corn plant response rating (corn [2]; [8]): 0
- Plant response rating, Corn (corn [2]; Preemergence, 500 g ai/ha): 50
- Ryegrass, Italian plant response rating (Italian ryegrass): 60
- Plant response rating, Ryegrass, Italian (Italian ryegrass): 40
- Wheat plant response rating (wheat): 30
- Plant response rating, Wheat (wheat): 0
- Oat, Wild plant response rating (wild oat): 60
- Plant response rating, Oat, Wild (wild oat): 5
- Bermudagrass plant response rating (bermudagrass; [9]): 100
- Plant response rating, Bermudagrass (bermudagrass; [10]): 100
- Plant response rating (0 to 100), Bermudagrass (bermudagrass; Preemergence): 100
- Bermudagrass plant response rating (bermudagrass; [11]): 100
- Cocklebur plant response rating (cocklebur; [12]): 0
- Plant response rating, Cocklebur (cocklebur; Preemergence): 0
- Plant response rating (0 to 100), Cocklebur (cocklebur; Preemergence): 50
- Cocklebur plant response rating (cocklebur; [11]): 40
- Corn plant response rating (corn [3]; [12]): 50
- Plant response rating, Corn (corn [3]; Preemergence): 0
- Plant response rating (0 to 100), Corn (corn [3]; Preemergence): 98
- Corn plant response rating (corn [3]; [11]): 85
- Foxtail, Giant plant response rating (giant foxtail): 100
- Plant response rating, Foxtail, Giant (giant foxtail): 100
- Plant response rating (0 to 100), Foxtail, Giant (giant foxtail): 100
- Johnsongrass plant response rating (johnsongrass): 100
- Plant response rating, Johnsongrass (johnsongrass): 100
- Plant response rating (0 to 100), Johnsongrass (johnsongrass): 100
- Kochia plant response rating (kochia): 100
- Plant response rating, Kochia (kochia): 100
- Morningglory plant response rating (morningglory [4]): 100
- Plant response rating, Morningglory (morningglory [4]): 85
- Nightshade plant response rating (eastern black nightshade): 95
- Plant response rating, Nightshade (eastern black nightshade): 95
- Nutsedge, Yellow plant response rating (yellow nutsedge): 100
- Plant response rating, Nutsedge, Yellow (yellow nutsedge): 60
- Sunflower plant response rating [5]: 20
- Plant response rating, Sunflower [5]: 20
- Plant response rating, Rice (rice; [13]): 0
- Plant response rating, Rice (rice; [14]): 0
- Plant response rating, Rice (rice; [15]): 60
- Plant response rating, Rice (rice; 250 g ai/ha, scale 0 to 100, 0 no effect, 100 complete control, 13 to 15 days): 70
